PubChem BioAssay AID1963832 (Molecular Pharmacology Branch, DTP, NCI, 2024)
pIC50: −log10 of the molar value.

Tested on: 885724-159-R-J1-PDC complex spheroid viability
Test: Anticancer human tumor 885724-159-R-J1-PDC patient-derived pancreatic adenocarcinoma cell line growth inhibition [POLQ]
Details: for pIC50: curve of first compound; for viability, T/C: stronger effect = lower value; active = viability on the fitted dose curve at most 10% of control; inactive = the rest
Outline: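 Three-cell-type spheroids modelling solid tumor plus stroma served as the readout system; POL inhibitors were tested individually and in combination, concentration ranges set by clinical Cmax where known.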

[1] = second compound 0.0316 µM, first compound 0.0316 µM
[2] = second compound 0.0316 µM, first compound 0.1 µM
[3] = second compound 0.0316 µM, first compound 0.316 µM
[4] = second compound 0.0316 µM, first compound 1 µM
[5] = second compound 0.0316 µM, first compound 3.16 µM
[6] = second compound 0.0316 µM, first compound 10 µM
[7] = second compound 0.1 µM, first compound 0.0316 µM
[8] = second compound 0.1 µM, first compound 0.1 µM
[9] = second compound 0.1 µM, first compound 0.316 µM
[10] = second compound 0.1 µM, first compound 1 µM
[11] = second compound 0.1 µM, first compound 3.16 µM
[12] = second compound 0.1 µM, first compound 10 µM
[13] = second compound 0.316 µM, first compound 0.0316 µM
[14] = second compound 0.316 µM, first compound 0.1 µM
[15] = second compound 0.316 µM, first compound 0.316 µM
[16] = second compound 0.316 µM, first compound 1 µM
[17] = second compound 0.316 µM, first compound 3.16 µM
[18] = second compound 0.316 µM, first compound 10 µM
[19] = second compound 1 µM, first compound 0.0316 µM
[20] = second compound 1 µM, first compound 0.1 µM
[21] = second compound 1 µM, first compound 0.316 µM
[22] = second compound 1 µM, first compound 1 µM
[23] = second compound 1 µM, first compound 3.16 µM
[24] = second compound 1 µM, first compound 10 µM
[25] = second compound 3.16 µM, first compound 0.0316 µM
[26] = second compound 3.16 µM, first compound 0.1 µM
[27] = second compound 3.16 µM, first compound 0.316 µM
[28] = second compound 3.16 µM, first compound 1 µM
[29] = second compound 3.16 µM, first compound 3.16 µM
[30] = second compound 3.16 µM, first compound 10 µM
[31] = second compound 10 µM, first compound 0.0316 µM
[32] = second compound 10 µM, first compound 0.1 µM
[33] = second compound 10 µM, first compound 0.316 µM
[34] = second compound 10 µM, first compound 1 µM
[35] = second compound 10 µM, first compound 3.16 µM
[36] = second compound 10 µM, first compound 10 µM
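Note: spheroids exposed to compounds for 7 days.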

COc1cc(C2c3cc4c(cc3C(OC3OC5COC(C)OC5C(O)C3O)C3COC(=O)C23)OCO4)cc(OC)c1O (stereo not drawn) + COC1C(OC(N)=O)C(O)C(Oc2ccc3c(O)c(NC(=O)c4ccc(O)c(CC=C(C)C)c4)c(=O)oc3c2C)OC1(C)C
inactive: viability, T/C [1] 96.7% | viability, T/C [2] 81.8% | viability, T/C [3] 67.8% | viability, T/C [4] 61.6% | viability, T/C [5] 56.2% | viability, T/C [6] 44.4% | viability, T/C [7] 93.7% | viability, T/C [8] 85.5% | viability, T/C [9] 72% | viability, T/C [10] 59.2% | viability, T/C [11] 53.8% | viability, T/C [12] 43.1% | viability, T/C [13] 92% | viability, T/C [14] 84.4% | viability, T/C [15] 75.7% | viability, T/C [16] 59.8% | viability, T/C [17] 54% | viability, T/C [18] 41.9% | viability, T/C [19] 100% | viability, T/C [20] 87.5% | viability, T/C [21] 71.3% | viability, T/C [22] 58.9% | viability, T/C [23] 58.2% | viability, T/C [24] 42.3% | viability, T/C [25] 92.5% | viability, T/C [26] 81.4% | viability, T/C [27] 69.8% | viability, T/C [28] 64.1% | viability, T/C [29] 53.5% | viability, T/C [30] 46.5% | viability, T/C [31] 90.6% | viability, T/C [32] 80% | viability, T/C [33] 64.7% | viability, T/C [34] 60.5% | viability, T/C [35] 54.4% | viability, T/C [36] 42.1%
5.40: pIC50 (second compound 0.316 µM)
5.23: pIC50 (second compound 3.16 µM)
5.42: pIC50 (second compound 10 µM)
5.27: pIC50 (second compound 0.0316 µM)
5.34: pIC50 (second compound 1 µM)
5.41: pIC50 (second compound 0.1 µM)

CCCS(=O)(=O)Nc1ccc(F)c(C(=O)c2c[nH]c3ncc(-c4ccc(Cl)cc4)cc23)c1F + Nc1ccc(C#CCN(C(=O)Cc2ncc(C(F)(F)F)cc2C(F)(F)F)c2ccc(F)cc2)nn1
inactive: viability, T/C [1] 93.2% | viability, T/C [2] 95.2% | viability, T/C [3] 115% | viability, T/C [4] 128% | viability, T/C [5] 147% | viability, T/C [6] 97.6% | viability, T/C [7] 105% | viability, T/C [8] 107% | viability, T/C [9] 109% | viability, T/C [10] 137% | viability, T/C [11] 153% | viability, T/C [12] 97.5% | viability, T/C [13] 99.4% | viability, T/C [14] 110% | viability, T/C [15] 118% | viability, T/C [16] 134% | viability, T/C [17] 147% | viability, T/C [18] 94.1% | viability, T/C [19] 95.6% | viability, T/C [20] 101% | viability, T/C [21] 116% | viability, T/C [22] 132% | viability, T/C [23] 148% | viability, T/C [24] 95% | viability, T/C [25] 90.8% | viability, T/C [26] 103% | viability, T/C [27] 109% | viability, T/C [28] 144% | viability, T/C [29] 146% | viability, T/C [30] 85% | viability, T/C [31] 96.8% | viability, T/C [32] 109% | viability, T/C [33] 133% | viability, T/C [34] 137% | viability, T/C [35] 135% | viability, T/C [36] 94.5%
< 5.00: pIC50 (second compound 0.0316 µM) | pIC50 (second compound 0.1 µM) | pIC50 (second compound 0.316 µM) | pIC50 (second compound 1 µM) | pIC50 (second compound 3.16 µM) | pIC50 (second compound 10 µM)

CC(C)n1c(=O)n(C)c2cnc3cc(F)c(-c4ccc(OCCCN5CCCCC5)nc4)cc3c21 + COC1C(OC(N)=O)C(O)C(Oc2ccc3c(O)c(NC(=O)c4ccc(O)c(CC=C(C)C)c4)c(=O)oc3c2C)OC1(C)C
< 5.00: pIC50 (second compound 0.0316 µM) | pIC50 (second compound 0.1 µM) | pIC50 (second compound 0.316 µM) | pIC50 (second compound 1 µM) | pIC50 (second compound 3.16 µM) | pIC50 (second compound 10 µM)
inactive: viability, T/C [1] 89.6% | viability, T/C [2] 89.6% | viability, T/C [3] 97.5% | viability, T/C [4] 88.9% | viability, T/C [5] 88.3% | viability, T/C [6] 84.4% | viability, T/C [7] 96.5% | viability, T/C [8] 99.4% | viability, T/C [9] 100% | viability, T/C [10] 100% | viability, T/C [11] 91.1% | viability, T/C [12] 105% | viability, T/C [13] 99.4% | viability, T/C [14] 86.6% | viability, T/C [15] 93.5% | viability, T/C [16] 93.7% | viability, T/C [17] 91.8% | viability, T/C [18] 86.1% | viability, T/C [19] 104% | viability, T/C [20] 96.5% | viability, T/C [21] 104% | viability, T/C [22] 90% | viability, T/C [23] 97% | viability, T/C [24] 77.8% | viability, T/C [25] 99.5% | viability, T/C [26] 92.5% | viability, T/C [27] 94.3% | viability, T/C [28] 98% | viability, T/C [29] 98.7% | viability, T/C [30] 93.2% | viability, T/C [31] 100% | viability, T/C [32] 94.9% | viability, T/C [33] 114% | viability, T/C [34] 91.9% | viability, T/C [35] 88.8% | viability, T/C [36] 93.2%

O=C(Nc1ccc(O)c(NS(=O)(=O)c2ccc(F)cc2)c1)c1ccc(-c2ccccc2)cc1 + COC1C(OC(N)=O)C(O)C(Oc2ccc3c(O)c(NC(=O)c4ccc(O)c(CC=C(C)C)c4)c(=O)oc3c2C)OC1(C)C
inactive: viability, T/C [1] 90.9% | viability, T/C [2] 91.9% | viability, T/C [3] 92.7% | viability, T/C [4] 102% | viability, T/C [5] 98.6% | viability, T/C [6] 72.9% | viability, T/C [7] 104% | viability, T/C [8] 96.7% | viability, T/C [9] 98.1% | viability, T/C [10] 104% | viability, T/C [11] 109% | viability, T/C [12] 72.7% | viability, T/C [13] 105% | viability, T/C [14] 95.6% | viability, T/C [15] 90% | viability, T/C [16] 107% | viability, T/C [17] 106% | viability, T/C [18] 87.3% | viability, T/C [19] 107% | viability, T/C [20] 96% | viability, T/C [21] 95% | viability, T/C [22] 100% | viability, T/C [23] 102% | viability, T/C [24] 71.4% | viability, T/C [25] 96.6% | viability, T/C [26] 92% | viability, T/C [27] 95.1% | viability, T/C [28] 94.1% | viability, T/C [29] 101% | viability, T/C [30] 84.1% | viability, T/C [31] 94.8% | viability, T/C [32] 97.3% | viability, T/C [33] 94.6% | viability, T/C [34] 97.1% | viability, T/C [35] 108% | viability, T/C [36] 75.8%
< 5.00: pIC50 (second compound 0.0316 µM) | pIC50 (second compound 0.1 µM) | pIC50 (second compound 0.316 µM) | pIC50 (second compound 1 µM) | pIC50 (second compound 3.16 µM) | pIC50 (second compound 10 µM)
